For 26 compounds, z-score and cell count results are on record in PubChem BioAssay AID2124 (Sanford-Burnham Center for Chemical Genomics, 2009).

The assay can be described thus: GFP-wavelength compound autofluorescence in cells – imaging, high-content imaging, artefact control, dose response (AID 2124).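 For all read-outs here: cells exposed to compound for 48 hours before fixing.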 The note with it: cells, GFP-channel autofluorescence, high-content imaging, at 10 µM; for z-score: stronger effect = higher value.

SMILES strings stand for the structures. Inconclusive results are not listed. Calls of active or inactive are those of the source. The rule behind the calls is not given here; tested in MIN6 cells.

In the case of `N#C/C(=C/c1ccc(N2CCOCC2)o1)c1ccc(Br)cc1`, the z-score is 0.24 and the cell count came to 555 cells.
On the same counts, the results for `Cc1[nH]c2ccccc2c1Cc1nnc(SCC(N)=O)o1` are -0.26 (inactive) and 2780 cells.
As to `CCOC(=O)c1c(-c2ccc(C)cc2)csc1NC(=O)/C(C#N)=C/c1ccc(O)c(OC)c1`, the z-score is -0.3 (inactive) and the cell count was 2890 cells.
Consider `CCN(CC)C(=O)c1sc2nc(-c3cccs3)cc(-c3cccs3)c2c1N`, for which the z-score was -0.2 (inactive) and the cell count turned out to be 3420 cells.
On the same counts, the results for `CCCCNC(=O)C1CC(=O)N(C2CCCCC2)C1` (configuration not stated) are -0.33 (inactive) and 3070 cells.
On the same counts, the results for `CCc1ccc(NC(=O)c2cc(C(C)C)on2)cc1` are -0.39 (inactive) and 3050 cells.
Consider `O=C(/C=C/c1ccc2ccccc2n1)c1cc(Br)ccc1O`, for which the z-score was -0.24 (inactive) and the cell count came out at 2620 cells.
As to `CSc1c(C#N)c(N)nc2sc(C(=O)c3ccc(Cl)c(Cl)c3)c(N)c12`, the z-score is -0.28 (inactive) and the cell count came out at 2770 cells.
The matching figures for `Cc1ccc(S(=O)(=O)c2cccc(S(=O)(=O)N3CCCC3)c2)cc1S(=O)(=O)N1CCCC1`: -0.33 (inactive) and 2360 cells.
The matching figures for `Cc1cc(/C=C2\SC(=S)NC2=O)c(C)n1-c1ccc(O)cc1`: -0.36 (inactive) and 3000 cells.
Turning to `Cc1cc(C)n(-c2ccc(C(=O)OCC(=O)N(CC(C)C)C3CCS(=O)(=O)C3)cc2)n1` (configuration not stated), the z-score is -0.33 (inactive) and the cell count is 3480 cells.
For `CCC(=O)OCC(=O)c1c(N)n(Cc2ccccc2)c(=O)n(C)c1=O`, the z-score was -0.33 (inactive) and the cell count came to 2890 cells.
On the same counts, the results for `Cc1ccc(-c2ccc(/C=C(\C#N)C(=O)Nc3cc(C)nn3-c3ccccc3)o2)cc1` are 1.66 and 2460 cells.
The matching figures for `O=C(NCCCN1CCCCCC1)C1CC(=O)N(C2CCCC2)C1` (configuration not stated): -0.33 (inactive) and 3260 cells.
The matching figures for `N#C/C(=C/c1ccc(N2CCCCCC2)o1)c1ccc(Cl)cc1`: 0.94 and 277 cells.
Regarding `O=[N+]([O-])c1ccc(N/N=C/c2c[nH]c3ccccc23)cc1`, the z-score was 0.33 and the cell count worked out at 1200 cells.
Regarding `CCCCC1=CC2=C(c3ccco3)C(=O)C(C)(OC(=O)c3ccc(OC)cc3)C(=O)C2=CN1CC(C)C` (configuration not stated), the z-score was -0.39 (inactive) and the cell count came out at 2870 cells.
As for `COc1cc2c3nnc(-c4ccc(F)cc4)c-3cn(Cc3ccc(F)cc3)c2cc1OC`, the z-score is 2.53 and the cell count amounted to 274 cells.
On the same counts, the results for `CCC(C)N1C(=O)/C(=C/c2c(NCCCOC(C)C)nc3c(C)cccn3c2=O)SC1=S` (configuration not stated) are 1.19 and 2350 cells.
On the same counts, the results for `CN1CCN(Cc2nc(N)nc(Nc3ccc4c(c3)OCCO4)n2)CC1` are -0.39 (inactive) and 3330 cells.
Consider `O=C(O)c1cc(-c2ccncc2)nc2ccc(F)cc12`, for which the z-score was -0.39 (inactive) and the cell count was found to be 3070 cells.
For `O=C(NCC1CCCO1)C1CCN(S(=O)(=O)N2CCCC2)CC1` (configuration not stated), the z-score was -0.33 (inactive) and the cell count was 3190 cells.
Regarding `N#CCc1nc(CSc2nc3ccccc3s2)cs1`, the z-score is -0.32 (inactive) and the cell count amounted to 2980 cells.
On the same counts, the results for `COC(=O)c1sccc1NC(=O)c1cc(OC)c(OC)c(OC)c1` are -0.39 (inactive) and 3020 cells.
As for `O=C1S/C(=C\c2ccc(N3CCOCC3)o2)C(=O)N1Cc1c(F)cccc1Cl`, the z-score was 2.04 and the cell count worked out at 1540 cells.
Regarding `CCCNC(=O)N1CCC(C(=O)c2ccc(Cl)cc2)CC1`, the z-score is -0.38 (inactive) and the cell count came to 2970 cells.
